Assay: xn = mol fraction of the nth substance listed

CC(C)CO + O
Details | viscosity [mPa·s]
293.15 K, 101.33 kPa, x1 = 0.0049 | 1.124
293.15 K, 101.33 kPa, x1 = 0.01 | 1.222
293.15 K, 101.33 kPa, x1 = 0.015 | 1.332
293.15 K, 101.33 kPa, x1 = 0.021 | 1.453
298 K, 101 kPa, x2 = 0.2 | 3.148
298 K, 101 kPa, x2 = 0.4 | 3.209
299 K, 101 kPa, x2 = 0.1 | 3.13
299 K, 101 kPa, x2 = 0.45 | 3.156
300 K, 101 kPa, x2 = 0.3 | 2.95
303 K, 101 kPa, x1 = 0.01 | 0.931
303 K, 101 kPa, x2 = 0.1 | 2.753
303 K, 101 kPa, x2 = 0.2 | 2.679
303 K, 101 kPa, x2 = 0.3 | 2.676
303 K, 101 kPa, x2 = 0.4 | 2.719
303 K, 101 kPa, x2 = 0.45 | 2.761
303.15 K, 101.33 kPa, x1 = 0.0049 | 0.899
303.15 K, 101.33 kPa, x1 = 0.01 | 0.967
303.15 K, 101.33 kPa, x1 = 0.015 | 1.04
303.15 K, 101.33 kPa, x1 = 0.021 | 1.119
313 K, 101 kPa, x1 = 0.01 | 0.7483
313 K, 101 kPa, x2 = 0.1 | 2.041
313 K, 101 kPa, x2 = 0.2 | 1.985
313 K, 101 kPa, x2 = 0.3 | 1.976
313 K, 101 kPa, x2 = 0.4 | 2.002
313 K, 101 kPa, x2 = 0.45 | 2.025
313.15 K, 101.33 kPa, x1 = 0.0049 | 0.721
313.15 K, 101.33 kPa, x1 = 0.01 | 0.767
313.15 K, 101.33 kPa, x1 = 0.015 | 0.815
323 K, 101 kPa, x1 = 0.01 | 0.6161
323 K, 101 kPa, x2 = 0.1 | 1.55
323 K, 101 kPa, x2 = 0.2 | 1.51
323 K, 101 kPa, x2 = 0.3 | 1.502
323 K, 101 kPa, x2 = 0.4 | 1.517
323 K, 101 kPa, x2 = 0.45 | 1.531
323.15 K, 101.33 kPa, x1 = 0.0049 | 0.604
323.15 K, 101.33 kPa, x1 = 0.01 | 0.642
323.15 K, 101.33 kPa, x1 = 0.015 | 0.675

CCCCCOC(C)=O + O
303.15 K, 101.3 kPa
Details | viscosity [mPa·s]
x2 = 0.0121 | 0.796
x2 = 0.0385 | 0.801
x2 = 0.0645 | 0.805
x2 = 0.0655 | 0.805
x2 = 0.0854 | 0.809

Cc1nc(C)n(C)c1C + O
viscosity [mPa·s], 100 kPa
Details | x1 = 0.0159 | x1 = 0.035 | x1 = 0.0585 | x1 = 0.0882 | x1 = 0.127
298.15 K | 1.258 | 1.817 | 2.65 | 3.86 | 5.77
303.15 K | 1.125 | 1.61 | 2.31 | 3.35 | 4.91
313.15 K | 0.899 | 1.244 | 1.733 | 2.53 | 3.36
323.15 K | 0.756 | 0.998 | 1.344 | 1.806 | 2.44

O=C1CCCN1C1CCCCC1 + O
298.15 K, 100 kPa
Details | viscosity [mPa·s]
x1 = 0.01 | 1.219
x1 = 0.0196 | 1.621
x1 = 0.0303 | 2.139
x1 = 0.0392 | 2.582
x1 = 0.0484 | 3.059
x1 = 0.0565 | 3.503
x1 = 0.0683 | 4.138
x1 = 0.079 | 4.749
x1 = 0.0878 | 5.762
x1 = 0.0982 | 5.739
x1 = 0.2023 | 10.42
x1 = 0.2989 | 12.86
x1 = 0.3988 | 13.62
x1 = 0.498 | 13.33
x1 = 0.5984 | 12.65
x1 = 0.7063 | 11.87
x1 = 0.7985 | 11.27
x1 = 0.8996 | 10.76
x1 = 0.9093 | 10.71
x1 = 0.9161 | 10.68
x1 = 0.928 | 10.65
x1 = 0.9365 | 10.61
x1 = 0.9461 | 10.58
x1 = 0.9574 | 10.52
x1 = 0.9675 | 10.5
x1 = 0.9784 | 10.46
x2 = 0.0112 | 10.41

O=C1OCCO1 + O
298.15 K, 101 kPa
Details | viscosity [mPa·s]
x1 = 0.0166 | 0.955
x1 = 0.0221 | 0.968
x1 = 0.0415 | 1.038
x1 = 0.0635 | 1.096
x1 = 0.0897 | 1.172
x1 = 0.1194 | 1.253
x1 = 0.1403 | 1.309
x1 = 0.1625 | 1.377
x1 = 0.2345 | 1.519
x1 = 0.3229 | 1.647
x1 = 0.3784 | 1.704
x1 = 0.4412 | 1.751
x1 = 0.5409 | 1.831
x1 = 0.6443 | 1.898

CC1CCCO1 (stereo not drawn) + O=C1CCCC1
298.15 K, 101 kPa
Details | viscosity [mPa·s]
x1 = 0.0212 | 1.103
x1 = 0.0637 | 1.061
x1 = 0.1277 | 1.001
x1 = 0.1917 | 0.944
x1 = 0.2563 | 0.89
x1 = 0.3212 | 0.84
x1 = 0.3856 | 0.792
x1 = 0.4507 | 0.747
x1 = 0.5157 | 0.705
x1 = 0.5812 | 0.665
x1 = 0.6466 | 0.628
x1 = 0.7069 | 0.596
x1 = 0.7785 | 0.56
x1 = 0.8445 | 0.529
x1 = 0.9107 | 0.5
x1 = 0.9775 | 0.472

O=C1CCCN1C1CCCCC1 + O=C1CCCN1
298.15 K, 100 kPa
Details | viscosity [mPa·s]
x1 = 0.0107 | 13.4
x2 = 0.0201 | 10.5
x2 = 0.0289 | 10.56
x2 = 0.0403 | 10.66
x2 = 0.0491 | 10.72
x2 = 0.0694 | 10.86
x2 = 0.08 | 10.94
x2 = 0.0913 | 11.02
x2 = 0.0973 | 11.06
x2 = 0.1019 | 11.11
x2 = 0.1982 | 11.73
x2 = 0.2954 | 12.31
x2 = 0.3091 | 12.44
x2 = 0.389 | 12.77
x2 = 0.4916 | 13.18
x2 = 0.602 | 13.5
x2 = 0.7053 | 13.64
x2 = 0.8042 | 13.66
x2 = 0.902 | 13.66
x2 = 0.9031 | 13.63
x2 = 0.9108 | 13.62
x2 = 0.9153 | 13.63
x2 = 0.9306 | 13.59
x2 = 0.9503 | 13.56
x2 = 0.9597 | 13.54
x2 = 0.9696 | 13.49
x2 = 0.979 | 13.45

O=C(O)CO + O=C(O)[C@@H]1CCCN1
323 K, 100 kPa
Details | viscosity [mPa·s]
x2 = 0.25 | 480
x2 = 0.338 | 1340
x2 = 0.504 | 8080

ClCC(Cl)Cl + O=S1(=O)CCCC1
viscosity [mPa·s], 100 kPa
Details | x2 = 0.0188 | x2 = 0.1215 | x2 = 0.2323 | x2 = 0.3466 | x2 = 0.4454 | x2 = 0.5548 | x2 = 0.6864 | x2 = 0.8249 | x2 = 0.9723
303.15 K | 1.202 | 2.163 | 3.186 | 4.237 | 5.137 | 6.131 | 7.307 | 8.528 | 9.798
308.15 K | 1.108 | 1.937 | 2.834 | 3.752 | 4.539 | 5.402 | 6.428 | 7.489 | 8.588
313.15 K | 1.024 | 1.754 | 2.548 | 3.369 | 4.069 | 4.831 | 5.738 | 6.671 | 7.649

CC(C)CO + OCC(O)CO
viscosity [mPa·s], 101.33 kPa
Details | x2 = 0.1006 | x2 = 0.2008 | x2 = 0.2991 | x2 = 0.3991 | x2 = 0.5003 | x2 = 0.6005 | x2 = 0.7001 | x2 = 0.7997 | x2 = 0.8994
298.15 K | 4.625 | 7.894 | 14.39 | 26.58 | 56.03 | 118.3 | 233.2 | 395.9 | 595.4
308.15 K | 3.192 | 5.58 | 9.274 | 15.86 | 30.35 | 59.4 | 110.6 | 179.4 | 269.1
318.15 K | 2.33 | 3.788 | 6.116 | 9.794 | 17.19 | 32.13 | 55.06 | 86.54 | 120.9

O=C(O)CO + OC[C@@H](O)[C@H](O)[C@@H](O)CO
101.33 kPa, x2 = 0.25
Details | viscosity [mPa·s]
303.15 K | 937
313.15 K | 446.3
323.15 K | 208.9

CCCCCOC(C)=O + OCc1ccccc1
Details | viscosity [mPa·s]
298.15 K, 101 kPa, x1 = 0.5 | 1.035

CCCCCOC(C)=O + Oc1ccccc1
Details | viscosity [mPa·s]
298.15 K, 101 kPa, x2 = 0.5 | 1.105

Cc1ccccc1O + Oc1ccccc1
298.15 K, 101 kPa
Details | viscosity [mPa·s]
x2 = 0.1343 | 7.835
x2 = 0.1973 | 7.93
x2 = 0.3 | 8.099
x2 = 0.3881 | 8.235
x2 = 0.491 | 8.404
x2 = 0.6283 | 8.565
x2 = 0.6927 | 8.645
x2 = 0.7579 | 8.731
x2 = 0.8003 | 8.757
x2 = 0.873 | 8.825
x2 = 0.901 | 8.851

C=CC(=O)OC + c1ccccc1
viscosity [mPa·s], 101 kPa
Details | x2 = 0.105 | x2 = 0.2191 | x2 = 0.3452 | x2 = 0.4069 | x2 = 0.5314 | x2 = 0.6457 | x2 = 0.714 | x2 = 0.7852 | x2 = 0.8977
298.15 K | 0.472 | 0.485 | 0.501 | 0.509 | 0.526 | 0.543 | 0.554 | 0.565 | 0.585
303.15 K | 0.433 | 0.447 | 0.462 | 0.47 | 0.488 | 0.505 | 0.515 | 0.526 | 0.545
308.15 K | 0.398 | 0.412 | 0.428 | 0.436 | 0.453 | 0.47 | 0.481 | 0.492 | 0.51
313.15 K | 0.369 | 0.382 | 0.392 | 0.403 | 0.418 | 0.433 | 0.442 | 0.452 | 0.467

C=CC(=O)OCCCC + c1ccccc1
viscosity [mPa·s], 101 kPa
Details | x2 = 0.1282 | x2 = 0.2182 | x2 = 0.2926 | x2 = 0.4108 | x2 = 0.4964 | x2 = 0.5923 | x2 = 0.708 | x2 = 0.7944 | x2 = 0.9032
298.15 K | 0.799 | 0.773 | 0.749 | 0.719 | 0.699 | 0.679 | 0.658 | 0.641 | 0.62
303.15 K | 0.738 | 0.709 | 0.686 | 0.656 | 0.636 | 0.618 | 0.601 | 0.59 | 0.574
308.15 K | 0.683 | 0.649 | 0.625 | 0.595 | 0.576 | 0.564 | 0.554 | 0.545 | 0.531
313.15 K | 0.62 | 0.585 | 0.565 | 0.538 | 0.524 | 0.51 | 0.501 | 0.496 | 0.485

Cc1ccccc1O + c1ccccc1
viscosity [mPa·s]
Details | 298.15 K | 308.15 K | 318.15 K | 323.15 K
101 kPa, x1 = 0.1176 | – | 0.641 | – | –
101 kPa, x1 = 0.2203 | – | 0.7752 | – | –
101 kPa, x1 = 0.3357 | – | 0.9753 | – | –
101 kPa, x1 = 0.4352 | – | 1.164 | – | –
101 kPa, x1 = 0.5693 | – | 1.535 | – | –
101 kPa, x1 = 0.6728 | – | 2.109 | – | –
101 kPa, x1 = 0.7757 | – | 2.775 | – | –
101 kPa, x1 = 0.896 | – | 3.774 | – | –
101.33 kPa, x1 = 0.1 | 0.704 | 0.609 | 0.531 | 0.497
101.33 kPa, x1 = 0.2 | 0.849 | 0.727 | 0.623 | 0.578
101.33 kPa, x1 = 0.4 | 1.319 | 1.073 | 0.894 | 0.815
101.33 kPa, x1 = 0.5 | 1.661 | 1.334 | 1.084 | 0.981
101.33 kPa, x1 = 0.6 | 2.148 | 1.668 | 1.331 | 1.186
101.33 kPa, x1 = 0.8 | 3.874 | 2.766 | 2.067 | 1.807
